Converted amounts (≈) assume the structure as drawn.
How the values were obtained:
[1] = Toxicity to normal human lymphoblastoid cells; format: cell-based; conditions: read-out: concentration up to which not toxic to normal human lymphoblastoid cells
Method: Since 1-(2-deoxy-2-fluoro-β-D-arabinofuranosyl)-5-iodocytosine was not toxic to normal human lymphoblastoid cells at concentrations of up to 10 μM, the compound is believed to affect tumor cells at concentrations 1/100th those needed to suppress normal cell replication.

[2] = system: cytomegalovirus (CMV strain AD 169); test: Activity against cytomegalovirus (plaque formation on WI-38 cells); format: cell-based
turkey herpesvirus = test: In vivo test on avian (turkey) herpesvirus in day-old chicks; conditions: 2.5 mg FIAC per 50 g chick at intervals
Method: In vivo tests were run to determine the effect of FIAC on avian (turkey) herpesvirus. To this end, day-old chicks were infected with turkey herpesvirus and treated at intervals with 2.5 mg FIAC per 50 g chick.

[3] = system: herpes simplex virus-type 1 DNA; test: Inhibition of replication of HSV-1 DNA versus cellular DNA in the same infected cells; format: cell-based; conditions: viral vs cellular DNA in the same infected cells
[4] = system: Herpes Simplex Virus type 2; test: Inhibition of Herpes Simplex Virus type 2 replication; format: cell-based
Method: (§1) Compounds of the invention show anti-viral and anti-tumor activity. 1-(2-Deoxy-2-fluoro-β-D-arabinofuranosyl)-5-iodocytosine inhibits Herpes Simplex Virus type 1 and type 2 replication. HFEM, Patton, 2931, and F-strain HSV-1 and 333 and G-strain HSV-2 are effected at concentrations of 1-(2-deoxy-2-fluoro-β-D-arabinofuranosyl)-5-iodocytosine 0.01μM (approximately 0.004 μg/ml).
(§2) The effective doses for 1-(2-deoxy-2-fluoro-β-D-arabinofuranosyl)-5-iodocytosine are given below. 1-(2-deoxy-2-fluoro-β-D-arabinofuranosyl)-5-iodocytosine is diluted in physiological saline, filter sterilized, and inoculated. This compound is readily soluble at concentrations of 25 mg/ml in saline. In mouse studies, the drug is inoculated by the intraperitoneal route.

[5] = system: Herpes Simplex Virus type 1; test: Inhibition of Herpes Simplex Virus type 1 replication; format: cell-based
Method: as §1, §2

HSV-1 strain 2931 = test: In vivo HSV-1 infection of A/J mice; conditions: for mice that survived the 21 day experiment: starting 24 hours after inoculation, intraperitoneal
Method: as §2
1-(2-deoxy-2-fluoro-β-D-arabinofuranosyl)-5-iodocytosine was also shown to be active in vivo. A/J mice were inoculated with approximately 50 LD50 of HSV-1 strain 2931 intraperitoneally and then treated with 1-(2-deoxy-2-fluoro-β-D-arabinofuranosyl)-5-iodocytosine starting 24 hours later. 1-(2-deoxy-2-fluoro-β-D-arabinofuranosyl)-5-iodocytosinewas given at 10 and 1 mg/kg/da for 5 days. Untreated mice died 8 days post inoculation. Five of 10 mice treated with 10 mg/kg/day survived the 21 day experiment. Two of 10 treated with 1 mg/kg/da survival the 21 day experiment and the remainder died an average of 10 days after inoculation.

herpes zoster virus = test: Anti-viral activity against herpes zoster virus; format: cell-based
[6] = system: viral versus the cellular enzymes (TK and DNA polymerase); test: Direct testing of interaction with the viral versus the cellular enzymes; format: biochemical; conditions: FIAC or its triphosphate
uninfected cells = conditions: compared with 5-iodo (or 5-bromo)-2'-deoxyuridine; cited from earlier work
[7] = system: herpes simplex virus (HSV); conditions: cited from earlier work
L5178Y = test: Cytotoxicity, 50% inhibition of growth of L5178Y cells in vitro; format: cell-based; conditions: Mus musculus, 96 hrs. incubation at 37° C., read-out: Cytoxicity ID50
Method: Concentration required for 50% inhibition of growth of cells in vitro
after 96 hrs. incubation at 37° C.

[8] = series of herpes simplex virus-types 1 and 2

## Nc1nc(=O)n([C@@H]2O[C@H](CO)[C@@H](O)[C@@H]2F)cc1I [1-(2-deoxy-2-fluoro-β-D-arabinofuranosyl)-5-iodocytosine]
[1]
  MNTC: > 10 µM
[2]
  sensitivity of cytomegalovirus to anti-viral effect: sensitive
Turkey herpesvirus
  effect on virus induced leukopenia / inhibition of the virus: brought the virus induced leukopenia back to the levels of the control uninfected chicks and thus inhibited the virus
[3]
  selective inhibition of replication of viral DNA: selectively inhibit the replication of herpes simplex virus-type 1 DNA but not cellular DNA
[4]; Human alphaherpesvirus 2, 333 and G-strain HSV-2, read-out: concentration at which HSV-2 strains are effected
  minimal effective concentration: ~0.004 µg/mL
[4]; [8]
  anti-viral activity: impressive anti-viral activity
[5]; Human alphaherpesvirus 1, HFEM, Patton, 2931, and F-strain HSV-1, read-out: concentration at which HSV-1 strains are effected
  minimal effective concentration: ~0.004 µg/mL
[5]; [8]
  anti-viral activity: impressive anti-viral activity
HSV-1 strain 2931; 1 mg/kg/da for 5 days
  mice that survived the 21 day experiment: Two of 10
HSV-1 strain 2931; 1 mg/kg/da for 5 days, untreated mice died 8 days post inoculation
  average time of death after inoculation (remainder): 10 days
HSV-1 strain 2931; 10 mg/kg/day for 5 days
  mice that survived the 21 day experiment: Five of 10
Herpes zoster virus
  anti-viral activity: impressive anti-viral activity
[6]
  selectivity for viral versus cellular enzymes: selectivity was demonstrated

## Nc1nc(=O)n([C@H]2C[C@H](O)[C@@H](CO)O2)cc1Br [5-Bromo-2'-deoxycytidine]
Uninfected cells
  toxicity to uninfected cells: less toxic to uninfected cells
[7]
  inhibition of HSV replication: as effectively as their corresponding deoxyuridine analogs

## Nc1nc(=O)n([C@H]2C[C@H](O)[C@@H](CO)O2)cc1I [5-iodo-2'-deoxycytidine]
Uninfected cells
  toxicity to uninfected cells: less toxic to uninfected cells
[7]
  inhibition of HSV replication: as effectively as their corresponding deoxyuridine analogs

## Nc1ccn([C@@H]2O[C@H](CO)[C@@H](O)[C@@H]2F)c(=O)n1 [IVa, 1-(2-deoxy-2-fluoro-β-D-arabinofuranosyl)cytosine, reference compound]
L5178Y
  IC50: 0.05 µg/mL (≈ 0.204 µM)

## Nc1nc(=O)n([C@@H]2O[C@H](CO)[C@@H](O)[C@@H]2F)cc1F [IVb, 1-(2-deoxy-2-fluoro-β-D-arabinofuranosyl)-5-fluorocytosine]
L5178Y
  IC50: 0.5 µg/mL (≈ 1.9 µM)

## Nc1nc(=O)n([C@@H]2O[C@H](CO)[C@@H](O)[C@@H]2F)cc1Cl [IVc, 1-(2-deoxy-2-fluoro-β-D-arabinofuranosyl)-5-chlorocytosine]
L5178Y
  IC50: 1.4 µg/mL (≈ 5.01 µM)

## Nc1nc(=O)n([C@@H]2O[C@H](CO)[C@@H](O)[C@@H]2F)cc1Br [IVd, 1-(2-deoxy-2-fluoro-β-D-arabinofuranosyl)-5-bromocytosine]
L5178Y
  IC50: ~10 µg/mL (≈ 30.9 µM)

## Cl.Nc1nc(=O)n([C@@H]2O[C@H](CO)[C@@H](O)[C@@H]2F)cc1I [IVe, 1-(2-Deoxy-2-fluoro-β-D-arabinofuranosyl)-5-iodocytosine hydrochloride]
L5178Y
  IC50: 48 µg/mL

## O=c1ccn([C@@H]2O[C@H](CO)[C@@H](O)[C@@H]2F)c(=O)[nH]1 [Va]
L5178Y
  IC50: > 10 µg/mL

## O=c1[nH]c(=O)n([C@@H]2O[C@H](CO)[C@@H](O)[C@@H]2F)cc1F [Vb, 1-(2-deoxy-2-fluoro-β-D-arabinofuranosyl)-5-fluorouracil]
L5178Y
  IC50: 1 µg/mL (≈ 3.79 µM)

## O=c1[nH]c(=O)n([C@@H]2O[C@H](CO)[C@@H](O)[C@@H]2F)cc1Cl [Vc, 1-(2-deoxy-2-fluoro-β-D-arabinofuranosyl)-5-chlorouracil]
L5178Y
  IC50: 1.4 µg/mL (≈ 4.99 µM)

## O=c1[nH]c(=O)n([C@@H]2O[C@H](CO)[C@@H](O)[C@@H]2F)cc1Br [Vd, 1-(2-deoxy-2-fluoro-β-D-arabinofuranosyl)-5-bromouracil]
L5178Y
  IC50: 0.9 µg/mL (≈ 2.77 µM)

## O=c1[nH]c(=O)n([C@@H]2O[C@H](CO)[C@@H](O)[C@@H]2F)cc1I [Ve, 1-(2-deoxy-2-fluoro-β-D-arabinofuranosyl)-5-iodouracil]
L5178Y
  IC50: 0.9 µg/mL (≈ 2.42 µM)

## Cc1cn([C@@H]2O[C@H](CO)[C@@H](O)[C@@H]2F)c(=O)[nH]c1=O [Vf, 1-(2-deoxy-2-fluoro-β-D-arabinofuranosyl)thymine]
[2]
  sensitivity of cytomegalovirus to anti-viral effect: sensitive
